According to US9708247B2, “Modulators of the eIF2alpha pathway” (The Regents of the University of California, priority 2013, dated 2017):

Test system: spatial learning
Assay: Morris water maze (hidden platform, weak training)
Format: in vivo, mouse
Conditions: p<0.05
Protocol: Eight to ten-week-old male C57BL/6J mice were used for behavioral experiments. Food and water were provided ad libitum, and mice were kept on a 12:12 h light/dark cycle (lights on at 08:00 h). All procedures complied with Canadian Council on Animal Care guidelines
Mice were trained in a water pool of 100 cm diameter with a hidden platform of 10 cm diameter. Mice were handled daily for 3 days before the experiment, and the training protocol consisted of 1 swimming trial per day. Each mouse swam until it found the hidden platform or 120 s, when it was gently guided to the platform and stayed there for 10 s before being returned to the cage. Immediately after the swimming trial the mice were injected intraperitoneally with ISRIB (0.25 mg/kg in saline, 1% DMSO). For the probe test, the platform was removed and each mouse was allowed to swim for 60 s, while its swimming trajectory was monitored with a video tracking system (HVS Image, Buckingham).

## O=C(COc1ccc(Cl)cc1)NC1CCC(NC(=O)COc2ccc(Cl)cc2)CC1 (stereo not drawn) [ISRIB]
24 h after last training session
  probe test: preference for target quadrant: significantly preferred the target quadrant
mice, 0.25 mg/kg ip daily after training, vehicle 68.1+/−20 s
  escape latency after 5 days of training: 16.4 ± 4.8 s
Vs vehicle
  probe test: crossing of the platform location: increased crossing of the platform location
